Each compound was assayed against T1, Human IL-17AF (Homo sapiens, UniProt Q16552+Q96PD4) (assay: IL-17AF ELISA (competitive ELISA, IL-17AF/IL-17Ra receptor-ligand binding)). Conditions: human IL-17AF coated plate, human IL-17Ra, read-out: IC50, inhibitory activity of compounds on human IL-17AF.
T1 construct: purchased Sino Biological Inc. CT047-H08H
T1 sequence (Q16552 24-155): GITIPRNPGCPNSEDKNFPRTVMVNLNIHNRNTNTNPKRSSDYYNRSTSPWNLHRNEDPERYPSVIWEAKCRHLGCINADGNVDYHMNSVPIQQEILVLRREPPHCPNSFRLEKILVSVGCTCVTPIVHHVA
T1 sequence (Q96PD4 31-163): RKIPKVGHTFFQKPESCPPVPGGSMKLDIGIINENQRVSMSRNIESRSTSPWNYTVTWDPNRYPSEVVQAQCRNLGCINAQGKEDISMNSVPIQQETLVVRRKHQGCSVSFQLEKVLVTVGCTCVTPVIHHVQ
Protocol: Experiment Example 2 IL-17AF ELISA
The inhibitory effects of human IL-17AF inhibitors on receptor-ligand binding were quantitatively determined by a competitive ELISA.
The ELISA was performed through the following steps.
Human IL-17AF (Sino Biological Inc., Cat #CT047-H08H) was diluted with coating buffer (50 mM PBS, pH 7.4) to reach a concentration of 0.625 μg/ml. 100 μL of the resulting solution was added to each well of a 96-well plate, and the plate was incubated at 37° C. for 30 min. In the blank group, 100 μL of coating buffer was added instead of the IL-17AF solution.
The plate was washed four times with 10 mM PBST (pH 7.4). 200 μL was used per well for each wash. After the final wash, the plate was tapped dry on absorbent paper.
Fresh 5% (w/v) skim milk solution was prepared before the experiment. For example, 5 grams of skim milk powder (Bio-Rad, Cat #170-6404) was completely dissolved in 100 mL of 10 mM PBST. 200 μL of the 5% (w/v) skim milk solution was added to each well, and the plate was incubated on a shaker at 25° C. for 30 min.
(S4) Preparation of 100× to-be-Tested Compound Solutions
During step (S3), the to-be-tested compound solutions were prepared. Each powdered compound was dissolved in dimethyl sulfoxide (DMSO) to reach a stock concentration of 10 mM. The to-be-tested compound solutions were then serially diluted four-fold with DMSO to obtain nine concentrations ranging from […].
(S6) Pre-Incubation of IL-17AF with to-be-Tested Compound Solutions
89 μL of PBST and 1 μL of each of the to-be-tested compound solutions were added to each well and mixed. The plate was pre-incubated at 25° C. for 10 min. In the blank group and the control group, 1 μL of DMSO was added instead of the to-be-tested compound solutions.
(S7) Incubation with Human IL-17Ra
10 μL of 100 nM IL-17Ra (Sino Biological Inc., Cat #10895-H03H) was added to each well, followed by incubation on a shaker at 25° C. for 30 min. The receptor solution was prepared in 10 mM PBST.
(S9) Incubation with Horseradish Peroxidase-Conjugated Antibody
100 μL of mouse anti-Fc tag HRP-conjugated antibody (Sino Biological Inc., Cat #10702-MM01T-H) was added to each well. The plate was incubated on a shaker at 25° C. for 30 min. The antibody was diluted with 5% (w/v) skim milk solution at 1:5,000 (v/v).
100 μL of TMB substrate solution (BD, Cat #555214) was added to each well. Substrate A and substrate B were freshly mixed at a volume ratio of 1:1 before use. The plate was incubated in the dark at 25° C. for 5-15 min.
(S12) Termination and Detection
The color reaction was terminated by addition of 2.5 M HCl. Absorbance was measured at 450 nm using a BMG PHERStar microplate reader.
(S13) Calculation of Half-Maximal Inhibitory Concentration (IC50)
The relative percent residual activity at each compound concentration was calculated according to Equation 1. The IC50 value of each test compound was then calculated in GraphPad 6 using the equation for log(inhibitor) versus normalized response with variable slope, as shown in Equation 2.
relative percent residual activity (%)=[(absorbance of sample−absorbance of blank group)/(absorbance of control group−absorbance of blank group)]%. Equation 1: […]
The compounds prepared in the Examples were tested for IL-17AF inhibitory activity according to the above method.

Row | IC50 [nM] | Structure (SMILES)
1 | 100 to 500 | Cc1[nH]nc2c1-c1cc(F)c(NC(=O)[C@@H](NC(=O)c3ccnn3CC3COC3)C(C3CC3)C3CC3)cc1COCC2 [compound 115]
2 | 100 to 500 | Cc1[nH]nc2c1-c1cnc(NC(=O)[C@@H](NC(=O)c3ccnn3CCCF)C(C3CC3)C3CC3)cc1COCC2 [compound 124]
3 | 100 to 500 | Cc1[nH]nc2c1-c1cc(F)c(NC(=O)[C@@H](NC(=O)c3ccnn3C(C)C)C(C3CC3)C3CC3)cc1CN(CC1CC1)CC2 [compound 166]
4 | 100 to 500 | Cc1[nH]nc2c1-c1cc(F)c(NC(=O)[C@@H](NC(=O)c3ccnn3C(C)C)C(C3CC3)C3CC3)cc1CN(C1CCOCC1)C(=O)C2 [compound 167]
5 | 100 to 500 | Cc1[nH]nc2c1-c1cc(F)c(NC(=O)[C@@H](NC(=O)c3ccnn3C(C)C)C(C3CC3)C3CC3)cc1CN(C1CCC(F)(F)CC1)C(=O)C2 [compound 168]
6 | 100 to 500 | Cc1[nH]nc2c1-c1cc(F)c(NC(=O)[C@@H](NC(=O)c3ccnn3C(C)C)C(C3CC3)C3CC3)cc1CN(C1CCOCC1)CC2 [compound 174]
7 | 100 to 500 | Cc1[nH]nc2c1-c1cnc(NC(=O)[C@@H](NC(=O)c3ccnn3C(C)C)C(C3CC3)C3CC3)cc1CN(C(C)C)CC2 [compound 200]
8 | 100 to 500 | Cc1[nH]nc2c1-c1cnc(NC(=O)[C@@H](NC(=O)c3ccnn3C(C)C)C(C3CC3)C3CC3)cc1CN(C1CCC1)CC2 [compound 201]
9 | ≤ 100 | Cc1[nH]nc2c1-c1cnc(NC(=O)[C@@H](NC(=O)c3conc3C(C)C)C(C3CC3)C3CC3)cc1CN(C1CC1)CC2 [compound 214]
10 | 100 to 500 | Cc1[nH]nc2c1-c1cnc(NC(=O)[C@@H](NC(=O)c3conc3C(C)C)C(C3CC3)C3CC3)cc1COCC2 [compound 234]
11 | 100 to 500 | Cc1[nH]nc2c1-c1cnc(NC(=O)[C@@H](NC(=O)c3ccnn3CC(F)(F)F)C(C3CC3)C3CC3)cc1COCC2 [compound 236]
12 | 100 to 500 | Cc1[nH]nc2c1-c1cnc(NC(=O)[C@@H](NC(=O)/C(F)=C\C3CC3)C(C3CC3)C3CC3)cc1COCC2 [compound 239]

More lines, now with the values behind:

Row | Structure (SMILES) | IC50 [nM]
13 | Cc1[nH]nc2c1-c1cc(F)c(NC(=O)[C@@H](NC(=O)c3ccnn3CCOCC(F)(F)F)C(C3CC3)C3CC3)cc1COCC2 [compound 104] | 100 to 500
14 | Cc1[nH]nc2c1-c1cc(F)c(NC(=O)[C@@H](NC(=O)c3cnnn3CCOC(F)F)C(C3CC3)C3CC3)cc1COCC2 [compound 108] | 100 to 500
15 | Cc1[nH]nc2c1-c1cc(F)c(NC(=O)[C@@H](NC(=O)c3ccnn3CCOC(C)(C)C)C(C3CC3)C3CC3)cc1COCC2 [compound 113] | 100 to 500
16 | Cc1[nH]nc2c1-c1cc(F)c(NC(=O)[C@@H](NC(=O)c3ccnn3CC3(C#N)CC3)C(C3CC3)C3CC3)cc1COCC2 [compound 114] | ≤ 100
17 | Cc1[nH]nc2c1-c1cc(F)c(NC(=O)[C@@H](NC(=O)c3ccnn3C(C)C)C(C3CC3)C3CC3)cc1CN(C1CC(F)(F)C1)C(=O)C2 [compound 169] | ≤ 100
18 | Cc1[nH]nc2c1-c1cc(F)c(NC(=O)[C@@H](NC(=O)c3ccnn3C(C)C)C(C3CC3)C3CC3)cc1CN(C1CCC1)C(=O)C2 [compound 170] | ≤ 100
19 | Cc1[nH]nc2c1-c1cc(F)c(NC(=O)[C@@H](NC(=O)c3ccnn3C(C)C)C(C3CC3)C3CC3)cc1CN(C1CC(F)(F)C1)CC2 [compound 176] | ≤ 100
20 | Cc1[nH]nc2c1-c1cnc(NC(=O)[C@@H](NC(=O)c3ccnn3C(C)C)C(C3CC3)C3CC3)cc1CN(Cc1ccccc1)C(=O)C2 [compound 182] | 100 to 500
21 | Cc1[nH]nc2c1-c1cnc(NC(=O)[C@@H](NC(=O)c3ccnn3C(C)C)C(C3CC3)C3CC3)cc1CN(C1CC1)C(=O)C2 [compound 191] | ≤ 100
22 | Cc1[nH]nc2c1-c1cnc(NC(=O)[C@@H](NC(=O)c3ccnn3C(C)C)C(C3CC3)C3CC3)cc1CN(CC(F)F)C(=O)C2 [compound 192] | ≤ 100
23 | Cc1[nH]nc2c1-c1cnc(NC(=O)[C@@H](NC(=O)c3ccnn3C(C)C)C(C3CC3)C3CC3)cc1CN(CC(C)(F)F)C(=O)C2 [compound 193] | ≤ 100
24 | Cc1[nH]nc2c1-c1cnc(NC(=O)[C@@H](NC(=O)c3ccnn3C(C)C)C(C3CC3)C3CC3)cc1CN(C1CC(F)(F)C1)C(=O)C2 [compound 194] | 100 to 500
25 | Cc1[nH]nc2c1-c1cnc(NC(=O)[C@@H](NC(=O)c3ccnn3C(C)C)C(C3CC3)C3CC3)cc1CN(C(C)C)C(=O)C2 [compound 195] | 100 to 500
26 | CC(=O)N1CCc2n[nH]c(C)c2-c2cnc(NC(=O)[C@@H](NC(=O)c3ccnn3C(C)C)C(C3CC3)C3CC3)cc2C1 [compound 196] | 100 to 500
27 | Cc1[nH]nc2c1-c1cnc(NC(=O)[C@@H](NC(=O)c3ccnn3C(C)C)C(C3CC3)C3CC3)cc1CN(C1CC1)CC2 [compound 198] | 100 to 500
28 | Cc1[nH]nc2c1-c1cnc(NC(=O)[C@@H](NC(=O)c3ccnn3C(C)C)C(C3CC3)C3CC3)cc1CN(CC(C)(F)F)CC2 [compound 199] | ≤ 100
29 | Cc1[nH]nc2c1-c1cnc(NC(=O)[C@@H](NC(=O)c3ccnn3C(C)C)C(C3CC3)C3CC3)cc1CN(CC(F)F)CC2 [compound 202] | 100 to 500
30 | Cc1[nH]nc2c1-c1cnc(NC(=O)[C@@H](NC(=O)c3conc3C3CC3)C(C3CC3)C3CC3)cc1CN(C1CC1)CC2 [compound 215] | ≤ 100
31 | CCc1nocc1C(=O)N[C@H](C(=O)Nc1cc2c(cn1)-c1c(n[nH]c1C)CCN(C1CC1)C2)C(C1CC1)C1CC1 [compound 216] | 100 to 500
32 | CCn1nccc1C(=O)N[C@H](C(=O)Nc1cc2c(cn1)-c1c(n[nH]c1C)CCN(C1CC1)C2)C(C1CC1)C1CC1 [compound 217] | ≤ 100
33 | Cc1[nH]nc2c1-c1cc(F)c(NC(=O)[C@@H](NC(=O)c3ccnn3CCCF)C(C3CC3)C3CC3)cc1CN(C1CC1)CC2 [compound 218] | ≤ 100
34 | Cc1[nH]nc2c1-c1cc(F)c(NC(=O)[C@@H](NC(=O)/C(F)=C\C(C)C)C(C3CC3)C3CC3)cc1COCC2 [compound 229] | 100 to 500
35 | Cc1[nH]nc2c1-c1cc(F)c(NC(=O)[C@@H](NC(=O)/C(F)=C\C3CC3)C(C3CC3)C3CC3)cc1COCC2 [compound 230] | 100 to 500
36 | Cc1[nH]nc2c1-c1cnc(NC(=O)[C@@H](NC(=O)c3ccnn3C3CC3)C(C3CC3)C3CC3)cc1COCC2 [compound 237] | 100 to 500
37 | Cc1[nH]nc2c1-c1cnc(NC(=O)[C@@H](NC(=O)/C(F)=C\C(C)C)C(C3CC3)C3CC3)cc1COCC2 [compound 238] | 100 to 500
38 | CCc1nocc1C(=O)N[C@H](C(=O)Nc1cc2c(cn1)-c1c(n[nH]c1C)CCOC2)C(C1CC1)C1CC1 [compound 240] | 100 to 500
39 | Cc1[nH]nc2c1-c1cnc(NC(=O)[C@@H](NC(=O)c3conc3C3CC3)C(C3CC3)C3CC3)cc1COCC2 [compound 241] | 100 to 500
